According to patent US10543231B2, “Methods and materials for treating cancer” (Mayo Foundation for Medical Education and Research, priority 2017, dated 2020):

Legend:
AsPC-1 cells = experiment: In vitro cell viability assay (MTS); type: cell-based; settings: AsPC-1, 1 hour treatment, MTS after 72 hours
Protocol: About 5×10^3 cells were seeded in 96-well plates and treated with increasing doses of GNP, Gem, and GNP-Gem diluted in respective media. After a 1-hour incubation, cells were washed thrice with PBS, overlaid with 100 μL media containing serum and antibiotics, and incubated for another 72 hours. At the end of the incubation, cell viability was measured using Celltiter 96 Aqueous One Solution Cell Proliferation Assay (Promega) as per the manufacturer's protocol. Briefly, the media containing the treatments were aspirated from the plate and washed with PBS. Then, 100 μL media containing 20 μL One Solution reagent was added to each well. The plate was incubated at 37° C. for 30 minutes, and absorbance at 492 nm was measured using Spectramax i3x. Percentage viability was calculated as follows: Viability (%)=100* (ATreated−ABlank)/(AUntreated−ABlank).
To this end, two commercially available pancreatic cancer cell lines were selected (AsPC-1 and PANC-1, obtained from ATCC). The cells were treated with increasing doses of GNP, Gem, and GNP-Gem for 1 hour. After 1 hour, cells were washed three times with PBS to remove the treatments completely in order to reduce any non-specific effect, and fresh media was added to the cells. The cell viability measurement was performed by MTS assay after 72 hours (FIG. 4A-B).

[1] = system: luciferase-transfected PANC-1 cells; experiment: In vivo tumor growth inhibition, orthotopic PANC-1 xenograft; design: species or system NOD-SCID-Gamma (NSG) mice; settings: after three weeks of treatment
Protocol: (§1) 6-8 weeks old male and female NOD-SCID-Gamma (NSG) mice were obtained from NCI and housed in the institutional animal facilities. About 1×10^6 luciferase-transfected PANC-1 cells suspended in 50 μL PBS were injected orthotopically into the pancreas of the mice. Tumors were allowed to grow for three weeks. Then, mice were randomized into four groups of ten (5 male mice and 5 female mice in each group), and 50 μg/mouse Gem, GNP-Gem with an equivalent Gem amount, or unconjugated GNPs were injected intraperitoneally three times a week for three weeks. Tumor growth was measured weekly using an IVIS bio-imager after injecting Luciferin. After three weeks of treatment, mice were sacrificed, and tumors were harvested, measured with slide calipers, and weighed. Tumor volumes were calculated using the formula: V=0.5 X a X b^2, where ‘a’ is the longest tumor axis, and ‘b’ is the shortest tumor axis.
About, 1×10^6 luciferase transfected PANC-1 cells were orthotopically implanted in the pancreas of 6-8 weeks old NSG mice. After three weeks, mice were imaged noninvasively using the Xenogen instrument to confirm tumor growth and then randomized into four groups before the initiation of treatment. Both male and female mice were included in the experiment to delineate any differential sex-dependent therapeutic effect of GNP-Gem. The experiment was terminated after three weeks of treatment. […] FIG. 5C depicts the tumor growth curve as measured by luciferase bioluminescence for female and male mice separately or in combination.

[2] = system: luciferase-transfected PANC-1 cells; experiment: Histological study of harvested tumors (H&E, Ki67); type: in vivo, NOD-SCID-Gamma (NSG) mice
Protocol: as §1
Tumors were harvested and fixed in neutral buffered 10% formalin at room temperature for 24 hours prior to embedding in paraffin and sectioning. Sections were deparaffinized and then subjected Hematoxylin and Eosin (H&E) and Ki67 staining according to manufacturer's instructions (DAB 150, Millipore). Stable diaminobenzidine was used as a chromogen substrate, and the sections were counterstained with a hematoxylin solution. Slides were digitized with Aperio AT2 slide scanner (Leica) and analyzed with imagescope software (Leica).

Nc1ccn([C@@H]2O[C@H](CO)[C@@H](O)C2(F)F)c(=O)n1 [Gem, Gemcitabine]
effect on cell viability (AsPC-1 cells): dose dependent effect | tumor volume, mean ([1]; female and male combined): 251 mm^3 | tumor volume, median ([1]; female and male combined): 250 mm^3 | tumor weight, mean ([1]; female and male combined): 310.86 mg | tumor weight, median ([1]; female and male combined): 280.35 mg | tumor volume, mean ([1]; female mice): 254.8 mm^3 | tumor volume, median ([1]; female mice): 254.6 mm^3 | tumor weight, mean ([1]; female mice): 295.9 mg | tumor weight, median ([1]; female mice): 272.4 mg | tumor volume, mean ([1]; male mice): 247.17 mm^3 | tumor volume, median ([1]; male mice): 245.3 mm^3 | tumor weight, mean ([1]; male mice): 325.8 mg | tumor weight, median ([1]; male mice): 288.3 mg | percentage of Ki67-positive nuclei, mean ([2]; female and male combined): 31.4% | percentage of Ki67-positive nuclei, median ([2]; female and male combined): 32.07% | percentage of Ki67-positive nuclei, mean ([2]; female mice): 31.3% | percentage of Ki67-positive nuclei, median ([2]; female mice): 32.3% | percentage of Ki67-positive nuclei, mean ([2]; male mice): 31.5% | percentage of Ki67-positive nuclei, median ([2]; male mice): 31.4%
